Columns and labels:
[1] = Binding affinity to DENV-3 RNA-dependent RNA polymerase assessed as dissociation constant incubated for 40 sec by surface plasmon resonance analysis; parameters: species or system dengue virus type 3
[2] = target: T1, Nonstructural protein 5 (Dengue virus, UniProt V5TFZ2); assay: Inhibition of DENV-4 NS5; parameters: species or system dengue virus type 4
[3] = test system: dengue virus type 4; assay: Binding affinity to DENV-4 RNA-dependent RNA polymerase assessed as change in enthalpy by ITC analysis
[4] = Inhibition of DENV-3 RNA-dependent RNA polymerase; parameters: species or system dengue virus type 3
[5] = target: Nonstructural protein 5 (Dengue virus) (UniProt V5TFZ2); assay: Binding affinity to DENV-3 NS5 assessed as gibbs free energy change; conditions: dengue virus type 3
[6] = Cytotoxicity against African green monkey Vero cells; type: toxicity, cell-based; conditions: chlorocebus sabaeus
[7] = test system: Dengue virus; assay: Antiviral activity against DENV NS5/RNA-dependent RNA polymerase; type: functional, organism-based
[8] = test system: dengue virus type 2; assay: Antiviral activity against DENV-2 RNA-dependent RNA polymerase infected in human Huh-7 cells assessed as reduction in viral replication by RT-PCR analysis; type: functional, organism-based
[9] = test system: Zika virus; assay: Antiviral activity against Zika virus infected in African green monkey Vero cells assessed as reduction in viral replication incubated for 24 hrs; type: functional, organism-based
[10] = test system: Dengue virus; assay: Antiviral activity against DENV RNA-dependent RNA polymerase infected in human PBMC; type: functional, organism-based
[11] = Cytotoxicity against hamster BHK-21 cells; type: toxicity, cell-based, Mesocricetus auratus
[12] = Inhibition of DENV RNA-dependent RNA polymerase in hamster BHK-21 cells; type: cell-based, Dengue virus
[13] = target: NS5 (Zika virus) (UniProt A0A143MHK7); assay: Inhibition of Zika virus RNA-dependent RNA polymerase relative to control; conditions: concentration not given here
[14] = Inhibition of DENV RNA-dependent RNA polymerase; parameters: species or system dengue virus type 1
[15] = target: T1, Nonstructural protein 5; assay: Inhibition of full length His-tagged DENV-2 NS5 incubated for 1 hr; parameters: species or system dengue virus type 2
[16] = test system: Zika virus; assay: Antiviral activity against Zika virus NS5/RNA-dependent RNA polymerase; type: functional, organism-based
[17] = target: NS5 (Zika virus, UniProt A0A143MHK7); assay: Inhibition of Zika virus RNA-dependent RNA polymerase activity
[18] = Binding affinity to DENV RNA-dependent RNA polymerase assessed as dissociation constant; parameters: species or system Dengue virus
[19] = target: Genome polyprotein (dengue virus type 2, UniProt P29990); assay: Inhibition of DENV-2 DENV2 NS2B-NS3
[20] = Inhibition of DENV RNA-dependent RNA polymerase activity; parameters: species or system Dengue virus

Sequence of NS5 (A0A143MHK7 whole entry): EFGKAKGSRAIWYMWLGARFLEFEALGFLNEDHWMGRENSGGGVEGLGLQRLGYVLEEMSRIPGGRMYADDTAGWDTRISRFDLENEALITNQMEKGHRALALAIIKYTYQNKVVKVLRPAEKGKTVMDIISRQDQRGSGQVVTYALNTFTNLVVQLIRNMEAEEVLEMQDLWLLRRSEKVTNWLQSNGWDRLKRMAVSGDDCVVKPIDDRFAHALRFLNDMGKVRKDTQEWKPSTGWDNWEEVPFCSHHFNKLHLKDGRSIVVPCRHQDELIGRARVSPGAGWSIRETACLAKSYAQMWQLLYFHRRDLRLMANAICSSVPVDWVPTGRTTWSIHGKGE
Sequence of NS5 (Zika virus) (A0A143MHK7 as listed by the source): as the sequence (A0A143MHK7 whole entry) above
Sequence of Genome polyprotein (P29990 1346-1475 limits assumed): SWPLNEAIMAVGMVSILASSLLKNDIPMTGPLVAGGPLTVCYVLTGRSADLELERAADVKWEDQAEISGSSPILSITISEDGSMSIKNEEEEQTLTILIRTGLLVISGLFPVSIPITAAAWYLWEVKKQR
Sequence of Genome polyprotein (P29990 1476-2093 limits assumed): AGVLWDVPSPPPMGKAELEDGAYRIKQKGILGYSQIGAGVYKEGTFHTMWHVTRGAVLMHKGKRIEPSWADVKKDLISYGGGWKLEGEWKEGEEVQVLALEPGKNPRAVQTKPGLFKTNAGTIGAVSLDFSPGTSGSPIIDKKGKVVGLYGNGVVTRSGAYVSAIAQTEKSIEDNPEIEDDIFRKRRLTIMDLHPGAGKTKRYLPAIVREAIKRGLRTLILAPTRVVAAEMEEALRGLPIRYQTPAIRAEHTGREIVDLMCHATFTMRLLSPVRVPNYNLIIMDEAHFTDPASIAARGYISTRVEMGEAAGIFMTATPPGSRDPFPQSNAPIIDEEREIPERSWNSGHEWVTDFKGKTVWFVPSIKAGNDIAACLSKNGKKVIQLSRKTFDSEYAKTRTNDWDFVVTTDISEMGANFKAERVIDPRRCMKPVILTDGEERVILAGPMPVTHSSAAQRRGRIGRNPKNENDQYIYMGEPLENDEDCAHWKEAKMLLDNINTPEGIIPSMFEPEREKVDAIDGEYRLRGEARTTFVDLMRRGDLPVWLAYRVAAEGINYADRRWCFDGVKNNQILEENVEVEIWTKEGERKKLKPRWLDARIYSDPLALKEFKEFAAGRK

In the case of `COc1ccc(CC(=O)O)cc1-c1cccs1`, the Kd [1] is reported as 29 µM, the IC50 [2] is reported as 140 µM and the deltaH [3] is reported as -5.96 kcal/mol. The IC50 [4] was 144 nM.
With `O=C1N=C(SCC(=O)N2CCN(c3ccc(F)cc3)CC2)N=C2CCN(Cc3ccccc3)C[C@H]12` the deltaG [5] was -6.43 kcal/mol.
For `CCCC/C=C/C#CCCCCCCCC(=O)O`, the CC50 [6] was 30 µM and the IC50 [7] was 2700 nM.
`O=C(NCCO)c1cc(-c2ccccc2)c(=O)n2c1sc1ccc(C3CCCCC3)cc12` showed an EC50 [8] of 1.9 µM and an EC50 [9] of 1800 nM.
In the case of `C#C[C@]1(O)[C@H](n2ccc(=O)[nH]c2=O)O[C@](F)(CO[P@](=O)(N[C@@H](C)C(=O)OC(C)C)Oc2ccccc2)[C@H]1O`, the EC50 [10] is reported as 370 nM.
Work on `O=C(O)CCNC(=O)c1cc(-c2ccccc2)c(=O)n2c1sc1ccc(C3CCCCC3)cc12` yielded an EC50 [8] of 3.5 µM and an EC50 [9] of 1000 nM.
With `C#Cc1c(C#N)ncn1[C@@H]1S[C@H](CO)[C@@H](O)[C@H]1O` the CC50 [11] was greater than 50000 nM and the IC50 [12] was 6.57 µM.
With `CO[C@@H]1[C@H](O)[C@@H](COP(=O)(O)OP(=O)(O)OP(=O)(O)O)O[C@H]1n1ccc(N)nc1=O` the inhibition [13] was 72.2%.
`Nc1cc(C(F)(F)F)ccc1NC(=O)Nc1cccc(S(=O)(=O)Nc2ccc(C(=O)O)cc2)c1` gave an IC50 [14] of 91 µM.
For `O=C1N/C(=N\c2nnc(-c3cccc(F)c3)s2)S/C1=C\c1cccc(F)c1`, the IC50 [15] was 2300 nM.
With `O[C@H]1[C@H]2c3cc4c(cc3CN3CCC(=C[C@@H]1O)[C@H]23)OCO4` [LYCORINE] the EC50 [16] was 390 nM and the CC50 [6] was 21 µM.
Work on `CCCCC#CC#CC#CCCCCCCCC(=O)O` yielded a CC50 [6] of 30 µM and an IC50 [7] of 2700 nM.
Molecule `C#Cc1c(C(N)=O)ncn1[C@@H]1O[C@H](CO)[C@@H](O)[C@H]1O` has a CC50 [11] of 1240 nM and an IC50 [12] of 0.27 µM.
For `C[C@@]1(O)[C@H](O)[C@@H](COP(=O)(O)OP(=O)(O)OP(=O)(O)O)O[C@H]1n1cnc2c(N)ncnc21`, the IC50 [17] was 5.26 µM.
`O=C(N[C@@H](Cc1ccc(O)cc1)C(=O)O)c1cc(-c2ccccc2)c(=O)n2c1sc1ccc(C3CCCCCC3)cc12` showed an EC50 [8] of 3.7 µM and an EC50 [9] of 1600 nM.
For `COc1ccc(CC(=O)O)cc1-c1ccsc1`, the Kd [1] was 67 µM, the IC50 [2] was 210 µM and the deltaH [3] was -7.7 kcal/mol. It also gave an IC50 [4] of 205 nM.
In the case of `Cc1ccc(C2N(c3ccccc3)CC3=C(CC(C)(C)CC3=O)N2c2ccccc2)cc1` (centres undefined), the Kd [18] is reported as 900 nM.
`O=C(N[C@@H](Cc1ccc(O)cc1)C(=O)O)c1cc(-c2ccccc2)c(=O)n2c1sc1ccc(OC3CCCCC3)cc12` gave an IC50 [19] of 9.61 µM.
`CCC(CC)COC(=O)[C@H](C)N[P@](=O)(OC[C@H]1O[C@@](C#N)(c2ccc3c(N)ncnn23)[C@H](O)[C@@H]1O)Oc1ccccc1` showed an IC50 [17] of 1.36 µM and an IC50 [20] of 1400 nM.

Reference: ChEMBL document CHEMBL5150000, “Insights on Dengue and Zika NS5 RNA-dependent RNA polymerase (RdRp) inhibitors” (Eur J Med Chem, 2021)
